Key:
Assay type in all cases: cell-based
[1] = test system: Leishmania donovani axenic amastigote parasites; experiment: Assay for Leishmania proliferation in vitro (axenic amastigotes, Cell TiterGlo); conditions: 48 h, 2 day incubation, read-out: L. donovani amastigotes EC50
Method: Leishmania donovani axenic amastigote parasites are grown at 37° C., 5% CO2 in media made of RPMI 1640, 4 mM L-glutamine, 20% heat inactivated FBS, 100 units/ml of penicillin and 100 μg/ml of streptomycin, 23 μM Folic Acid, 100 μM Adenosine, 22 mM D-glucose, 25 mM MES. The pH of media is adjusted to 5.5 at 37° C. using HCl. 20 μL of media is first dispensed into 384 well plates and […] of the compounds of invention in DMSO are added to the plate wells. At the same time control compounds and DMSO are added to plates to serve as the positive and negative controls, respectively. 40 μL of parasite culture (9600 parasites) are then added to the plate wells. The plates are then placed into incubators. After 2 day incubation, 20 μL of Cell TiterGlo (Promega) is added to the plate wells. The luminescence signal of each well is measured using the Envision reader (Perkin Elmer). The percentage inhibition of 50%, EC50, is calculated for each of the compounds.

[2] = test system: L. donovani HU3 strain in mouse peritoneal macrophages; experiment: Proliferation of L. donovani in mouse peritoneal macrophages (SybrGreen, high-content imaging); conditions: Leishmania donovani, Peritoneal macrophage, 120 h; infected mouse peritoneal macrophages, 5 days; read-out: L. donavani Macrophage EC50
Excerpt: The activity of a compound according to the present invention for inhibition of parasitemai can be assessed by the parasite proliferation assay. The assay measures the increase in the parasite number in the assayed plate well using a DNA intercalating dye, SYBR Green I® dye (INVITROGEN) to stain Leishmania cell nuclei. It is understood that the assays illustrate the invention without in any way limiting the scope of the invention.
L. donovani HU3 strain is propagated by infecting BALBc mice through tail vein injection with 10^7 Leishmania parasites. Infected mice are allowed to develop infection during 9-11 weeks post-infection. During this time, the parasites accumulate in the infected mouse spleens to large numbers, and the infected mice serve as the source of parasites for the in vitro measurement of compound efficacies. To assay a compound for anti-leishmanial activity, peritoneal macrophages isolated from non-infected BALBc mice are seeded into 384-well plates at density 2×10^4 macrophages per well in 25 mL of medium (RPMI1640, 10% fetal serum albumin, 10 mM HEPES, 1 mM sodium pyruvate, 1% Pen/Strep). Subsequently, the seeded plates are placed into an incubator set to maintain 37° C. temperature and atmosphere with 5% CO2. The next day, Leishmania parasites are isolated from the spleens of mice infected for 9-11 weeks and 4×10^5 isolated parasites in […] of the above media are added to each plate well. Plates are then returned into incubators and infection is allowed to proceed for 24 hours. After the infection of macrophages is completed, […] of compounds of the invention in the above medium, which also contains 5% DMSO, are added to plate wells containing infected macrophages. At the same time control compounds (miltefosine and amphotericin B) and DMSO are added to plates to serve as the positive and negative controls, respectively. After the compound addition, the plates are returned into incubator and cells infected with parasites are cultured for 5 days. At the end of cultivation, […] of 8% paraformaldehyde is added to plate wells and incubated for 15 min at room temperature. Following the incubation, the paraformaldehyde from plate wells is aspirated, and […] of PBS containing 0.2% Triton X-100 is added to wells. After 15 min incubation, the solution is aspirated from wells again, and replaced with SybrGreen Dye solution in PBS (1:125,000 dilution). Infected cells are imaged with Evotec Opera high-content microscope, and the number of parasites in well is determined by counting parasite nuclei visualized by staining with SybrGreen dye. The percentage inhibition of 50%, EC50, is calculated for each compound.
The inhibitory efficacy of the compounds of the invention against proliferation of L. donovani in mouse peritoneal macrophages is provided in Table I.

[3] = test system: Trypanosoma cruzi amastigotes cultured in 3T3 fibroblast cells; experiment: Assay for proliferation of kinetoplastid parasite Trypanosoma cruzi (beta-galactosidase/CPRG readout); conditions: NIH3T3, 144 h, Tulahuen strain in 3T3 cells, 6 day incubation, read-out: T cruzi EC50
Excerpt: Compounds of the invention can be assayed to measure their capacity to inhibit proliferation of kinetoplastid parasite Trypanosoma cruzi. The screening procedure is for identifying compounds with inhibitor activity against Trypanosoma cruzi amastigotes cultured in 3T3 fibroblast cells. The assay is done using the mammalian stage (amastigotes) of T. cruzi that replicates in the intracellular space of host cells. The host cells are initially infected with the culture-derived trypomastigotes that rapidly invade and then divide as amastigotes. The protocol uses the Tulahuen strain of T. cruzi that has been engineered to express the E. coli beta-galactosidase gene (Lac-Z) (Antimicr. Agents Chemoth. 40:2592, 1996). This allows for a colorimetric readout by using the substrate CPRG and an absorbance plate reader.
3T3 fibroblast cells are re-suspended in RPMI-1640 medium without phenol red medium supplemented with 10% FBS (heat inactivated), 100 μg/ml penicillin, and 100 μg/ml streptomycin. Forty μL of suspension (1,000 cells) is dispensed into 384-well plates and incubated overnight at 37° C. temperature and in atmosphere containing 5% CO2. The following day, 100 nL of compounds of the invention in DMSO are added to plate wells containing 3T3 cells. At the same time control compounds (benznidazole and nifurtimox) and DMSO are added to plates to serve as the positive and negative controls, respectively. After that, 10 μL of media containing 10,000 T. cruzi trypomastigotes are added to each plate well and plates are placed back into incubators. After 6 day incubation, 10 μL of reagent solution (0.6 mM CPRG, 0.6% NP-40 in PBS) is added to plates and incubated at room temperature for 2 hours. Absorbance is then measured on SpectraMax Gemini fluorimeter to determine relative number of T. cruzi cells present in each plate well. The percentage inhibition of 50%, EC50, is calculated for each compound.

[4] = test system: Trypanosoma brucei Lister 427 strain; experiment: Assay for proliferation of kinetoplastid parasite Trypanosoma brucei (Cell Titer Glo); conditions: bloodstream form, 48 hours, read-out: T. brucei EC50
Excerpt: The proliferation is quantified by the addition of Cell Titer Glo (Promega®) a luminescent cell viability assay that measures the number of viable cells in culture based on the quantification of cellular ATP amount, which is an indicator of metabolically active cells. The following assay illustrates the invention without in any way limiting the scope of the invention. This parasite proliferation assay measures the increase in parasite growth using an assay that measures ATP activity, Cell Titer Glo®.
Trypanosoma brucei Lister 427 strain is grown in HMI-9 Trypanosome media for T. brucei bloodstream form. 30 μl of HMI-9 media is dispensed into 384 well assay plates. 200 nL of compounds of the invention (in DMSO), including anti-trypanosome controls (Pentamidine and suramin), are then transferred into the assay plates, as well as DMSO alone to serve as a negative control for inhibition. Then 25 μl of a suspension of T. brucei culture in HMI-9 media is dispensed into the assay plates. The final concentration of parasites in culture corresponds to 1.7% of 0.5 uM ATP activity with Cell Titer Glo® in HMI-9 media. The plates are placed in a 37° C. incubator for 48 hours in an atmospheric environment containing 5% CO2. 40 μl of Cell Titer Glo® is dispensed into the plates. The plates are then read for luminescence. The percentage inhibition of 50%, EC50, is calculated for each compound.

Row | SMILES | EC50 [1] | EC50 [2] | EC50 [3] | EC50 [4]
1 | N#CC1(C(=O)Nc2cnc3nc(-c4cc(NC(=O)c5ccc(F)o5)ccc4Cl)[nH]c3c2)CC1 [Example 70, N-(4-chloro-3-{6-[(1-cyanocyclopropane)amido]-1H-imidazo[4,5-b]pyridin-2-yl}phenyl)-5-fluorofuran-2-carboxamide] | 1.2 µM | 0.53 µM | 0.72 µM | 0.032 µM
2 | O=C(Nc1ccc(Cl)c(-c2nc3ncc(NC(=O)C4(O)CC4)cc3[nH]2)c1)c1ccco1 [Example 35, N-(4-chloro-3-{6-[(1-hydroxycyclopropane)amido]-1H-imidazo[4,5-b]pyridin-2-yl}phenyl)furan-2-carboxamide] | 11.4 µM | > 50 µM | > 20 µM | 0.907 µM
3 | CCOC(=O)Nc1cnc2nc(-c3cccc(NC(=O)c4ccc(F)o4)c3)[nH]c2c1 [Example 3, ethyl N-{2-[3-(5-fluorofuran-2-amido)phenyl]-1H-imidazo[4,5-b]pyridin-6-yl}carbamate] | 7.7 µM | 2.47 µM | 2.23 µM | 0.23 µM
4 | O=C(Nc1ccc(Cl)c(-c2nc3ncc(NC(=O)C(O)CO)cc3[nH]2)c1)c1ccco1 (centres unmarked) [Example 18, N-{4-chloro-3-[6-(2,3-dihydroxypropanamido)-1H-imidazo[4,5-b]pyridin-2-yl]phenyl}furan-2-carboxamide] | 8.9 µM | 16.9 µM |  | 1.72 µM
5 | CC(C)(N)C(=O)Nc1cnc2nc(-c3cc(NC(=O)c4ccco4)ccc3Cl)[nH]c2c1 [Example 26, N-{3-[6-(2-amino-2-methylpropanamido)-1H-imidazo[4,5-b]pyridin-2-yl]-4-chlorophenyl}furan-2-carboxamide] | > 25 µM | 23.3 µM | 14.8 µM | 0.53 µM
6 | CC(C)(C)OC(=O)NCCC(=O)Nc1cnc2nc(-c3cc(NC(=O)c4ccc(F)o4)ccc3Cl)[nH]c2c1 [Example 68, tert-butyl N-[2-({2-[2-chloro-5-(5-fluorofuran-2-amido)phenyl]-1H-imidazo[4,5-b]pyridin-6-yl}carbamoyl)ethyl]carbamate] | 6.2 µM | 7 µM | 7.6 µM | 0.411 µM
7 | COC(=O)Nc1cnc2nc(-c3cc(NC(=O)c4ccco4)ccc3Cl)[nH]c2c1 [Example 9, methyl N-{2-[2-chloro-5-(furan-2-amido)phenyl]-1H-imidazo[4,5-b]pyridin-6-yl}carbamate] | 0.95 µM | 2.48 µM |  | 0.143 µM
8 | CCOC(=O)Nc1cnc2nc(-c3cc(NC(=O)c4ccco4)ccc3Cl)[nH]c2c1 [Example 6, ethyl N-{2-[2-chloro-5-(furan-2-amido)phenyl]-1H-imidazo[4,5-b]pyridin-6-yl}carbamate] | 0.58 µM | 1.42 µM |  | 0.034 µM
9 | CC(C)(CO)C(=O)Nc1cnc2nc(-c3cc(NC(=O)c4ccco4)ccc3Cl)[nH]c2c1 [Example 22, N-{4-chloro-3-[6-(3-hydroxy-2,2-dimethylpropanamido)-1H-imidazo[4,5-b]pyridin-2-yl]phenyl}furan-2-carboxamide] | 20.7 µM | > 50 µM |  | 0.76 µM
10 | COCCC(=O)Nc1cnc2nc(-c3cc(NC(=O)c4ccco4)ccc3Cl)[nH]c2c1 [Example 19, N-{4-chloro-3-[6-(3-methoxypropanamido)-1H-imidazo[4,5-b]pyridin-2-yl]phenyl}furan-2-carboxamide] | 13.3 µM | 25.5 µM | > 20 µM | 
11 | CC(C)C(=O)Nc1cnc2nc(-c3cc(NC(=O)c4ccco4)ccc3Cl)[nH]c2c1 [Example 10, N-{4-chloro-3-[6-(2-methylpropanamido)-1H-imidazo[4,5-b]pyridin-2-yl]phenyl}furan-2-carboxamide] | 1.17 µM | 2.29 µM | 3.7 µM | 
12 | CC(C)OC(=O)Nc1cnc2nc(-c3cc(NC(=O)c4ccco4)ccc3Cl)n(C(=O)OC(C)C)c2c1 [Example 7, propan-2-yl 2-[2-chloro-5-(furan-2-amido)phenyl]-6-{[(propan-2-yloxy)carbonyl]amino}-1H-imidazo[4,5-b]pyridine-1-carboxylate] | 0.64 µM | 1.35 µM | 0.147 µM | 
13 | CNS(=O)(=O)Nc1cnc2nc(-c3cc(NC(=O)c4ccco4)ccc3Cl)[nH]c2c1 [Example 52, N-(4-chloro-3-{6-[(methylsulfamoyl)amino]-1H-imidazo[4,5-b]pyridin-2-yl}phenyl)furan-2-carboxamide] | > 25 µM | 28.9 µM | > 20 µM | 
14 | CC(C)NC(=O)Nc1cnc2nc(-c3cc(NC(=O)c4ccco4)ccc3Cl)[nH]c2c1 [Example 24, N-[4-chloro-3-(6-{[(propan-2-yl)carbamoyl]amino}-1H-imidazo[4,5-b]pyridin-2-yl)phenyl]furan-2-carboxamide] | 23.2 µM | > 39.2 µM | > 20 µM | 
15 | CC1(C(=O)Nc2cnc3nc(-c4cc(NC(=O)c5ccco5)ccc4Cl)[nH]c3c2)COC1 [Example 43, N-{4-chloro-3-[6-(3-methyloxetane-3-amido)-1H-imidazo[4,5-b]pyridin-2-yl]phenyl}furan-2-carboxamide] | > 25 µM | 47.4 µM | > 20 µM | 

Reference: patent US9186361B2, “Compounds and compositions for the treatment of parasitic diseases” (Novartis AG, priority 2013, dated 2015)
